Data on 16 compounds can be found in ChEMBL document CHEMBL4665751, “Discovery of Clinical Candidate (5-(3-(4-Chlorophenoxy)prop-1-yn-1-yl)-3-hydroxypicolinoyl)glycine, an Orally Bioavailable Prolyl Hydroxylase Inhibitor for the Treatment of Anemia” (J Med Chem, 2020).

Activity calls are given as the source filed them. No cut-off for these calls is given here.

One test addresses Egl nine homolog 1 (Homo sapiens, UniProt Q9GZT9). The test can be described thus: Inhibition of FITC-HIF1alpha (556 to 574 residues) binding to PHD2 (181 to 426 residues) (unknown origin) by fluorescence polarization assay. A general note: In fluorescence polarisation assays a small probe gives low polarisation when free and higher when bound to something large.
A short description of test [1]: In vivo inhibition of PHD2 in C57BL/6 mouse assessed as increase in EPO plasma level by measuring EPO level at 15 mg/kg, iv measured after 4 hrs by ELISA. It counts as functional.
Test [2] deals with Mus musculus. The test can be described thus: Antianemic activity in cisplatin-induced C57BL/6 mouse anemia model assessed as improvement in anemia at 10 mg/kg, po administered every other day for 1 month. Type of test: functional. Particulars: time 1 months, 730 h.
Test [3] relates to Mus musculus. The test can be described thus: Antianemic activity in cisplatin-induced C57BL/6 mouse anemia model assessed as increase in haemoglobin level administered orally every other day for 1 month. It counts as functional, organism-based. Particulars: dose mg/kg 10-25, time 1.0 months.
The subject of test [4] is Mus musculus. As to the kind of experiment: In vivo inhibition of PHD2 in po dosed C57BL/6 mouse assessed as upregulation of EPO plasma level administered 4 times for 3 days by ELISA. Type of test: functional, organism-based. Particulars: dose mg/kg 5-50, time 3.0 day.
In test [5] the test system is Mus musculus. As to the kind of experiment: Antianemic activity in cisplatin-induced C57BL/6 mouse anemia model assessed as improvement in anemia at 25 mg/kg, po administered every other day for 1 month. It counts as functional. Particulars: time 1 months, 730 h.
Test [6] has as its system Mus musculus. The test can be described thus: Induction of erythropoiesis in po dosed C57BL/6 mouse assessed as increase in red blood cell count administered thrice for 3 days measured 4 hrs post last dose. Type of test: functional, organism-based. Particulars: dose mg/kg 5-50, time 72.0 hrs.
Test [7] relates to Mus musculus. As to the kind of experiment: In vivo inhibition of PHD2 in C57BL/6 mouse assessed as upregulation of EPO plasma level by measuring EPO level at 15 mg/kg, po measured after 4 hrs by ELISA. Type of test: functional, organism-based. For orientation: ELISA stands for enzyme-linked immunosorbent assay.

Egl nine homolog 1, sequence (Q9GZT9 whole entry, the tested form may be a part): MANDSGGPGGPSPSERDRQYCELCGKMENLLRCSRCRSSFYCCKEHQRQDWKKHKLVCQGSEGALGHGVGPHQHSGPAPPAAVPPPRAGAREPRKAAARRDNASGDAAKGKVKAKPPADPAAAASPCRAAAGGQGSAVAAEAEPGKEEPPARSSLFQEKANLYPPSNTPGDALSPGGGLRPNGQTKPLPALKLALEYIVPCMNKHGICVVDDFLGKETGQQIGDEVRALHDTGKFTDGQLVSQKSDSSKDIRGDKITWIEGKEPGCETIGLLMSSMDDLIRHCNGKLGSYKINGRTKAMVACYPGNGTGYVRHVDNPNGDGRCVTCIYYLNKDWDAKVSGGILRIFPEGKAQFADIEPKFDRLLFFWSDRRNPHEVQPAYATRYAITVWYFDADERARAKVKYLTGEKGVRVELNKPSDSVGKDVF

One may read the IC50 as the concentration at which inhibition is half-maximal. The low end stands for greater potency, the high end for weaker potency. Consider `O=C(O)CNC(=O)c1ncc(C#CCOCCc2ccc(Cl)cc2)cc1O`, for which, on Egl nine homolog 1, the 50% inhibitory concentration (IC50) was 408 nM.
On Egl nine homolog 1, `O=C(O)CNC(=O)c1ncc(C#CCOc2ccccc2C(F)(F)F)cc1O` came in with a half-maximal inhibitory concentration (IC50) of 1070 nM.
In the case of `N#Cc1ccc(OCC#Cc2cnc(C(=O)NCC(=O)O)c(O)c2)cc1`, the concentration for half-maximal inhibition (IC50) at Egl nine homolog 1 was determined as 263 nM.
Regarding `COc1ccc(OCC#Cc2cnc(C(=O)NCC(=O)O)c(O)c2)cc1`, in test [1], the Activity is greater than 1000 pg/mL.
As to `COc1cccc(OCC#Cc2cnc(C(=O)NCC(=O)O)c(O)c2)c1`, the IC50 at Egl nine homolog 1 worked out at 428 nM.
Consider `Cc1cccc(OCC#Cc2cnc(C(=O)NCC(=O)O)c(O)c2)c1`, for which, at Egl nine homolog 1, the IC50 was 125 nM. For the same compound, the Activity in test [1] is greater than 1000 pg/mL.
As for `CN(CC#Cc1cnc(C(=O)NCC(=O)O)c(O)c1)c1ccccc1`, the concentration for half-maximal inhibition (IC50) on Egl nine homolog 1 is 454 nM.
As to `O=C(O)CNC(=O)c1ncc(C#CCOc2ccccc2Cl)cc1O`, the Activity in test [1] is greater than 1000 pg/mL.
Regarding `COc1ccccc1OCC#Cc1cnc(C(=O)NCC(=O)O)c(O)c1`, the IC50 on Egl nine homolog 1 came out at 218 nM.
At Egl nine homolog 1, `O=C(O)CNC(=O)c1ncc(C#CCOc2cccc(F)c2)cc1O` returned an IC50 of 256 nM.
Same read-out and setting: for `O=C(O)CNC(=O)c1ncc(C#CCOCc2ccc(Cl)cc2)cc1O` the value was 84.3 nM.
On to `O=C(O)CNC(=O)c1ncc(C#CCOc2cccc(C(F)(F)F)c2)cc1O`, for which the IC50 on Egl nine homolog 1 worked out at 877 nM.
Same read-out and setting: for `O=C(O)CNC(=O)c1ncc(C#CCOc2cccc(Cl)c2)cc1O` the value was 587 nM; for `O=C(O)CNC(=O)c1ncc(C#CCOc2cccc3ccccc23)cc1O`, 346 nM.
For `O=C(O)CNC(=O)c1ncc(C#CCOc2ccc(-c3ccccc3)cc2)cc1O`, the concentration for half-maximal inhibition (IC50) on Egl nine homolog 1 came to 825 nM.
Regarding `Cc1nc(C(=O)NCC(=O)O)c(O)c2ccc(Oc3ccccc3)cc12` [ROXADUSTAT], the Activity with Mus musculus [2] is 86.4%; with Mus musculus [5], 115.2%; with Mus musculus [6] it was “Dose-dependent effect”. For the same compound, the outcome in the test on Mus musculus [3] was Active. The inhibition result in the test on Mus musculus [4] is “Dose-dependent effect”. Moreover, in the test with Mus musculus [7], the inhibition result is “Active”.
